Assay results from US20220112538A1, “SPECTROSCOPIC METHODS, REAGENTS AND SYSTEMS TO DETECT, IDENTIFY, AND CHARACTERIZE BACTERIA FOR ANTIMICROBIAL SUSCEPTIBLITY” (priority 2020, published 2022).
≈ marks a conversion by molar mass, not a printed value. Where two headings read alike, the source gives them in different places.

What was measured:
Type in all cases: cell-based
E. coli 25922 = assay: Minimum inhibitory concentration from phenol red 560 nm absorbance peak height; settings: 1000 CFU/mL E. coli; extrapolated from a linear fit to phenol red peak height
Text: (§1) This example characterizes the response of E. coli 25922 to Gentamicin. Top: The curves illustrate the response of a test solution that includes 1000 CFU/mL E. coli, the Phenol-Red based reagent described in herein, and Gentamicin GM present at concentrations that are depicted in the legend. The Y axis depicts the height of the phenol red peak at 560 nm, normalized to the starting value.
as §1, with “described” for “described in”, “value. Bottom: The normalized peak height at 300 minutes, plotted as a function of GM concentration.” for “value.”
Antimicrobial susceptibility response was characterized. The metabolic activity of the causative pathogen can be suppressed by an effective antimicrobial. Thus, when a candidate antibiotic, present at a test concentration, is combined with the teachings described herein, then we can deduce the effect of that antibiotic on the microorganism. If we combine a series of antibiotic concentrations, then we can deduce the minimum inhibitory concentration. […]

[1] = system: S. aureus (clinical sample); assay: MIC from time required for S. aureus pigment detection versus antibiotic concentration
Method: FIG. 15: Variation of the time required for pigment detection versus antibiotic concentration for tetracycline plotted against antibiotic concentration. The pathogen concentration is estimated at 8.8×10^6 CFU/mL. For antibiotic concentrations of 2 μg/mL, the time to detection is increased by a factor of >2 compared to the baseline value of about 150 minutes for this pathogen concentration. We set this 2× increase as the criterion for MIC˜other criterion can also be used, but will require a different set of corrections for pathogen concentration. With the MIC at the test pathogen concentration, we apply the correction described above, and find that the rapid test MIC correlates with the CLSI M100 MIC, as depicted in FIG. 23.
The second factor that complicates a rapid test for MIC is the presence of multiple pathogens in a polymicrobial sample. For example, a polymicrobial sample that is dominated by Enterococcus but in which the S. aureus is the pathogen of concern, the MIC estimated by examining the growth of Rayleigh scattering can be erroneous because of an incorrect correction for pathogen concentration, and because the Rayleigh scattering is dominated by Enterococcus growth. This issue can be mitigated by one of two ways: (a) by flagging all polymicrobial samples & (b) by focusing the response on a signal associated with the pathogen of interest. For example, using the methods described in Example 5, we detect the S. aureus specific pigments, and characterize the time required for the detection of these pigments as a function of antibiotic concentration. This is illustrated in FIG. 15 for a clinical sample containing […], and the antibiotic tetracycline. From this variation, the MIC is estimated as the minimum antibiotic concentration required to increase the time to detection metric by 2× compared to the time to detection metric observed for the media without any antibiotic (which was 150 minutes in this example). And so, the MIC in this example is log (concentration)=0.3, or a concentration of 2 μg/mL. The concentration of S. aureus estimated from the detection time of 150 minutes (and the methods described in Example 8) is 8.8×10^6 CFU/mL. […] This clinical sample also contained Enterococcus (which was evident after isolating individual colonies on a blood Agar plate), but the method described here focuses the MIC metric on the response of S. aureus.

[2] = system: wild type strain of S. aureus; assay: MIC from Rayleigh scattering growth in Cation Adjusted Mueller Hinton Broth, corrected for pathogen concentration; settings: for MIC: Staphylococcus aureus
Method: FIG. 21A: Variation of Rayleigh scattering with time for 7 samples containing Cation Adjusted Mueller Hinton Broth (CAMHB), an unknown concentration of a test bacteria (which was identified as S. aureus due to pigment production), and loaded onto 96 well plates at 7 concentrations of the candidate antibiotic Vancomycin, with concentrations starting at 1.25 μg/mL (for Cell 7) and decreasing in steps of 2× for each well down to Cell 1. The data is collected for 8 hours. FIG. 21B: Variation of the fitting parameter a, in the fit equation y=a/[1+exp(−(t−b)/c)], with a non-linear best fit routine is applied to fit this equation to the data depicted on the left. The fitting parameter is plotted against cell#. From this variation, it is estimated that Rayleigh growth becomes negligible at an extrapolated cell # of 4.8, which corresponds to a Vancomycin concentration of 0.19 μg/mL.
As we observe experimentally, the antimicrobial susceptibility metric MIC is a function of pathogen concentration, as depicted in FIG. 19. Thus, estimates for MIC obtained from a test sample that is at a pathogen concentration lower than the concentration of 2×10^8 CFU/mL (or 0.5 McFarland) specified in the CLSI M100 standard will need to be corrected for this variation to maximize concordance between a rapid test MIC and the CLSI standard. Empirically, we find that the slope of the traces depicted in FIG. 19 scales with the absolute magnitude of the estimated MIC, as depicted in FIG. 20. Thus, an algorithm to correct the MIC for pathogen concentration is to use the empirical observed scaling relationship depicted in FIG. 20, along with the pathogen concentration estimated from the methods described in FIG. 18. […] Separately, the time to detection is measured as 161 minutes, and this returns an S. aureus concentration of 7.5×10^6 CFU/mL.
We illustrate this process with one example of a wild type strain of S. aureus tested against Vancomycin in Cation Adjusted Mueller Hinton Broth (CAMHB Himedia labs M1657). With CAMHB, the viability of the bacteria is estimated by plotting the Rayleigh scattering factor versus time, and fitting this to an exponential growth function a/[1+exp(−(t−b)/c)], as illustrated in FIG. 21. The growth factor a is then plotted against antibiotic concentration, and from this profile, the concentration at which a approaches zero is estimated as the nominal MIC at the pathogen concentration. Separately, the pathogen concentration is estimated and the MIC is corrected for the pathogen concentration. […] The CLSI M100 breakpoints for Staphylococcus against Vancomycin are >16 μg/mL for resistant and <2 μg/mL for susceptible. Accordingly, this strain of S. aureus is reported as being susceptible to vancomycin, […]

Compound: Gentamicin
- GM concentration at which the 560 nm peak height does not decrease from the starting value (minimum inhibitory concentration) (E. coli 25922): 2.03 µg/mL

Compound: CN(C)[C@@H]1C(O)=C(C(N)=O)C(=O)[C@@]2(O)C(O)=C3C(=O)c4c(O)cccc4[C@@](C)(O)[C@H]3C[C@@H]12 [tetracycline]
- MIC (minimum concentration that increases time to detection by 2×) at the test pathogen concentration ([1]; S. aureus 8.8×10^6 CFU/mL): 2 µg/mL (≈ 4.5 µM)
- MIC as log (concentration) ([1]; S. aureus 8.8×10^6 CFU/mL): 0.3
- MIC ([1]; Staphylococcus aureus, corrected from 8.8×10^6 CFU/mL, read-out: MIC at 0.5 McFarland, estimated by correction for pathogen concentration): 2.51 µg/mL (≈ 5.65 µM)
- increase of time to pigment detection compared to baseline (factor) ([1]; antibiotic 2 μg/mL, baseline about 150 minutes, pathogen 8.8×10^6 CFU/mL): > 2

Compound: CN[C@H](CC(C)C)C(=O)N[C@H]1C(=O)N[C@@H](CC(N)=O)C(=O)N[C@H]2C(=O)N[C@H]3C(=O)N[C@H](C(=O)N[C@H](C(=O)O)c4cc(O)cc(O)c4-c4cc3ccc4O)[C@H](O)c3ccc(c(Cl)c3)Oc3cc2cc(c3O[C@@H]2O[C@H](CO)[C@@H](O)[C@H](O)[C@H]2O[C@H]2C[C@](C)(N)[C@H](O)[C@H](C)O2)Oc2ccc(cc2Cl)[C@H]1O [Vancomycin]
- MIC estimated at the test pathogen concentration (concentration at which Rayleigh growth becomes negligible) ([2]; CAMHB, 8 hours, extrapolated cell # 4.8, S. aureus 7.5×10^6 CFU/mL): 0.19 µg/mL (≈ 0.131 µM)
- MIC ([2]; 8 h, read-out: MIC estimated at the test pathogen concentration (concentration at which Rayleigh growth becomes negligible), CAMHB, 8 hours, extrapolated cell # 4.8, S. aureus 7.5×10^6 CFU/mL): 0.192 µg/mL (≈ 0.132 µM)
- MIC ([2]; read-out: CLSI M100 MIC at 0.5 McFarland, estimated by correction for pathogen concentration, corrected from 7.5×10^6 CFU/mL to 0.5 McFarland): 0.867 µg/mL (≈ 0.598 µM)
- resistant or susceptible status by comparison with CLSI M100 breakpoints ([2]; breakpoints >16 μg/mL resistant, <2 μg/mL susceptible): susceptible
